The assay addresses T1, AsPC-1 HiBiT-KRASG12D (Homo sapiens, UniProt P01116, G12D).
T1 construct: insert the HiBiT tag onto the N-terminus of one or more of the endogenous KRAS alleles; endogenous in cells; host or cells: AsPC-1 (ATCC CRL-1682), CRISPR-Cas9 knock-in clone, one tagged allele
The experiment in a line: HiBiT degradation assay (G12D), AsPC-1 HiBiT-KRASG12D cells. Format: cell-based. The settings on record: 24 hours treatment; for Dmax: ASPC1, AsPC-1 HiBiT-KRASG12D cells, maximum degradation observed; for DC50: AsPC-1 HiBiT-KRASG12D cells, HiBiT luminescence. The procedure, abridged:
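Steps: treat HiBiT-KRASG12D AsPC-1 cells with compound for 24 hours; add alamar blue to 1× and incubate 4 hours to assess viability; wash with PBS; add HiBiT lytic detection reagent, incubate 45 minutes at room temperature; read luminescence. Viability fluorescence is normalized to DMSO wells.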
(In general: The HiBiT peptide binds its large partner to form an active luciferase.)

T1 sequence (P01116 1-188 isoform P01116-2 G12D): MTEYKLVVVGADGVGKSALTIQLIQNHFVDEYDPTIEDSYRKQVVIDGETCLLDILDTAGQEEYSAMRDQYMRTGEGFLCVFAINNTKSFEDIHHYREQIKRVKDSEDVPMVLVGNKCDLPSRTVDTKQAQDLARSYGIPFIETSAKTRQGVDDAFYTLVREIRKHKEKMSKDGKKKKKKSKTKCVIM

As usually defined, the Dmax is the largest share of the target that was removed. As a reminder, the DC50 is the concentration at which degradation of the target reaches its halfway point. `CCc1cccc2cc(O)cc(-c3ncc4c(N5CC6CCC(C5)N6)nc(OC[C@@H]5CC[C@@H](COC(=O)N6CCN(c7cc([C@@H](C(=O)N8C[C@H](O)C[C@H]8C(=O)N[C@@H](C)c8ccc(-c9scnc9C)cc8)C(C)C)on7)C[C@@H]6C)N5C)nc4c3F)c12` [Compound 280, [(2S,5S)-5-[[4-(3,8-diazabicyclo[3.2.1]octan-3-yl)-7-(8-ethyl-3-hydroxy-1-naphthyl)-8-fluoro-pyrido[4,3-d]pyrimidin-2-yl]oxymethyl]-1-methyl-pyrrolidin-2-yl]methyl (2S)-4-[5-[(1S)-1-[(2S,4R)-4-hydroxy-2-[[(1S)-1-[4-(4-methylthiazol-5-yl)phenyl]ethyl]carbamoyl]pyrrolidine-1-carbonyl]-2-methyl-propyl]isoxazol-3-yl]-2-methyl-piperazine-1-carboxylate] showed a Dmax of 20 to 60% and a DC50 of 600 to 1000 nM.
`CCc1cccc2cc(O)cc(-c3ncc4c(N5CC6CCC(C5)N6)nc(OC[C@@]56CCCN5[C@H](COC(=O)N5CCN(c7cc([C@H](C(=O)N8C[C@H](O)C[C@H]8C(=O)N[C@@H](C)c8ccc(-c9scnc9C)cc8)C(C)C)on7)CC5)CC6)nc4c3F)c12` (relative stereo) [Compound 107, [(3R*,7aR**)-7a-{[(4-{3,8-diazabicyclo[3.2.1]octan-3-yl}-7-(8-ethyl-3-hydroxynaphthalen-1-yl)-8-fluoropyrido[4,3-d]pyrimidin-2-yl)oxy]methyl}-hexahydro-1H-pyrrolizin-3-yl]methyl 4-{5-[(2R***)-1-[(2S,4R)-4-hydroxy-2-{[(1S)-1-[4-(4-methyl-1,3-thiazol-5-yl)phenyl]ethyl]carbamoyl}pyrrolidin-1-yl]-3-methyl-1-oxobutan-2-yl]-1,2-oxazol-3-yl}piperazine-1-carboxylate] gave a Dmax of 80 to 100% and a DC50 of less than 600 nM.
In the same order, the values of `CCc1cccc2cc(O)cc(-c3ncc4c(N5CC6CCC(C5)N6)nc(OCCN5CCC(CC6CN(c7cc(C(C(=O)N8C[C@H](O)C[C@H]8C(=O)N[C@@H](C)c8ccc(-c9scnc9C)cc8)C(C)C)on7)C6)CC5)nc4c3F)c12` (relative stereo) [Compound 82, (2S,4R)-1-[(2R*)-2-(3-{3-[(1-{2-[(4-{3,8-diazabicyclo[3.2.1]octan-3-yl}-7-(8-ethyl-3-hydroxynaphthalen-1-yl)-8-fluoropyrido[4,3-d]pyrimidin-2-yl)oxy]ethyl}piperidin-4-yl)methyl]azetidin-1-yl}-1,2-oxazol-5-yl)-3-methylbutanoyl]-4-hydroxy-N-[(1S)-1-[4-(4-methyl-1,3-thiazol-5-yl)phenyl]ethyl]pyrrolidine-2-carboxamide] are 20 to 60% and 600 to 1000 nM.
Taken in the same sequence, the figures for `Cc1ncsc1-c1ccc([C@H](C)NC(=O)[C@@H]2C[C@@H](O)CN2C(=O)[C@H](c2cc(OC[C@@H]3CC[C@]4(COc5nc(N6CC7CCC(C6)N7)c6cnc(-c7cc(O)cc(Cl)c7C7CC7)c(F)c6n5)CCCN34)no2)C(C)C)cc1` [Compound 65, (2S,4R)-1-[(2S)-2-(3-{[(3S,7aS)-7a-({[7-(3-chloro-2-cyclopropyl-5-hydroxyphenyl)-4-{3,8-diazabicyclo[3.2.1]octan-3-yl}-8-fluoropyrido[4,3-d]pyrimidin-2-yl]oxy}methyl)-hexahydro-1H-pyrrolizin-3-yl]methoxy}-1,2-oxazol-5-yl)-3-methylbutanoyl]-4-hydroxy-N-[(1S)-1-[4-(4-methyl-1,3-thiazol-5-yl)phenyl]ethyl]pyrrolidine-2-carboxamide] were less than 20% and 1000 to 3000 nM.
Taken in the same sequence, the figures for `C#Cc1c(F)ccc2cccc(-c3ncc4c(N5CC6CCC(C5)N6)nc(OC[C@]56CCCN5[C@H](COc5cc([C@H](C(=O)N7C[C@H](O)C[C@H]7C(=O)N[C@@H](C)c7ccc(-c8scnc8C)cc7)C(C)C)on5)CC6)nc4c3F)c12` [Compound 316, (2S,4R)-1-[(2S)-2-[3-[[(3S,8R)-8-[[4-(3,8-diazabicyclo[3.2.1]octan-3-yl)-7-(8-ethynyl-7-fluoro-1-naphthyl)-8-fluoro-pyrido[4,3-d]pyrimidin-2-yl]oxymethyl]-1,2,3,5,6,7-hexahydropyrrolizin-3-yl]methoxy]isoxazol-5-yl]-3-methyl-butanoyl]-4-hydroxy-N-[(1S)-1-[4-(4-methylthiazol-5-yl)phenyl]ethyl]pyrrolidine-2-carboxamide] were 20 to 60% and less than 600 nM.
`CCc1cccc2cc(O)cc(-c3ncc4c(N5CC6CCC(C5)N6)nc(N5CC(N6CCC(CC7CN(c8cc([C@H](C(=O)N9C[C@H](O)C[C@H]9C(=O)N[C@@H](C)c9ccc(-c%10scnc%10C)cc9)C(C)C)on8)C7)CC6)C5)nc4c3F)c12` [Compound 165] gave a Dmax of 20 to 60% and a DC50 of less than 600 nM.
`CCc1cccc2cc(O)cc(-c3ncc4c(N5CC6CCC(C5)N6)nc(OC[C@]56CCCN5[C@H](COc5cc([C@@H](C(=O)N7C[C@H](O)C[C@H]7C(=O)N[C@@H](C)c7ccc(-c8scnc8C)cc7)C(C)C)on5)CC6)nc4c3F)c12` [Compound 324, (2S,4R)-1-[(2S)-2-(3-{[(3S,7aR)-7a-{[(4-{3,8-diazabicyclo[3.2.1]octan-3-yl}-7-(8-ethyl-3-hydroxynaphthalen-1-yl)-8-fluoropyrido[4,3-d]pyrimidin-2-yl)oxy]methyl}-hexahydro-1H-pyrrolizin-3-yl]methoxy}-1,2-oxazol-5-yl)-3-methylbutanoyl]-4-hydroxy-N-[(1S)-1-[4-(4-methyl-1,3-thiazol-5-yl)phenyl]ethyl]pyrrolidine-2-carboxamide] returned a Dmax of 80 to 100%.
With `CCc1cccc2cc(O)cc(-c3ncc4c(N5CC6CCC(C5)N6)nc(OCCN5CC[C@@H]6[C@@H](CCN6c6cc([C@H](C(=O)N7C[C@H](O)C[C@H]7C(=O)N[C@@H](C)c7ccc(-c8scnc8C)cc7)C(C)C)on6)C5)nc4c3F)c12` (relative stereo) [Compound 74, (2S,4R)-1-[(2R*)-2-{3-[(3aR**,7aR***)-5-{2-[(4-{3,8-diazabicyclo[3.2.1]octan-3-yl}-7-(8-ethyl-3-hydroxynaphthalen-1-yl)-8-fluoropyrido[4,3-d]pyrimidin-2-yl)oxy]ethyl}-octahydro-1H-pyrrolo[3,2-c]pyridin-1-yl]-1,2-oxazol-5-yl}-3-methylbutanoyl]-4-hydroxy-N-[(1S)-1-[4-(4-methyl-1,3-thiazol-5-yl)phenyl]ethyl]pyrrolidine-2-carboxamide], the Dmax was in the range of 80 to 100% and the DC50 was less than 600 nM.
In the same order, the values of `CCc1cccc2cc(O)cc(-c3ncc4c(N5CC6CCC(C5)N6)nc(OC5CCN(CC6CCN(c7cc([C@H](C(=O)N8C[C@H](O)C[C@H]8C(=O)N[C@@H](C)c8ccc(-c9scnc9C)cc8)C(C)C)on7)CC6)CC5)nc4c3F)c12` [Compound 166, (2S,4R)-1-[(2R)-2-{3-[4-({4-[(4-{3,8-diazabicyclo[3.2.1]octan-3-yl}-7-(8-ethyl-3-hydroxynaphthalen-1-yl)-8-fluoropyrido[4,3-d]pyrimidin-2-yl)oxy]piperidin-1-yl}methyl)piperidin-1-yl]-1,2-oxazol-5-yl}-3-methylbutanoyl]-4-hydroxy-N-[(1S)-1-[4-(4-methyl-1,3-thiazol-5-yl)phenyl]ethyl]pyrrolidine-2-carboxamide] are 20 to 60% and less than 600 nM.
The compound `CCc1cccc2cc(O)cc(-c3ncc4c(N5CCCCCC5)nc(OC[C@@H]5CC[C@@H](COC(=O)N6CCN(c7cc([C@H](C(=O)N8C[C@H](O)C[C@H]8C(=O)N[C@@H](C)c8ccc(-c9scnc9C)cc8)C(C)C)on7)CC6)N5C)nc4c3F)c12` [Compound 272, [(2S,5S)-5-[[4-(azepan-1-yl)-7-(8-ethyl-3-hydroxy-1-naphthyl)-8-fluoro-pyrido[4,3-d]pyrimidin-2-yl]oxymethyl]-1-methyl-pyrrolidin-2-yl]methyl 4-[5-[(1R)-1-[(2S,4R)-4-hydroxy-2-[[(1S)-1-[4-(4-methylthiazol-5-yl)phenyl]ethyl]carbamoyl]pyrrolidine-1-carbonyl]-2-methyl-propyl]isoxazol-3-yl]piperazine-1-carboxylate] had a Dmax of 60 to 80% and a half-maximal degradation concentration (DC50) of less than 600 nM.
Consider `C#Cc1c(F)ccc2cc(O)cc(-c3ncc4c(N5CC6CCC(C5)N6)nc(OCCN5CCC(CC6(F)CCN(CC(=O)N[C@H](C(=O)N7C[C@H](O)C[C@H]7C(=O)N[C@@H](C)c7ccc(-c8scnc8C)cc7)C(C)(C)C)CC6)CC5)nc4c3F)c12` [Compound 157, (2S,4R)-1-[(2S)-2-(2-{4-[(1-{2-[(4-{3,8-diazabicyclo[3.2.1]octan-3-yl}-7-(8-ethynyl-7-fluoro-3-hydroxynaphthalen-1-yl)-8-fluoropyrido[4,3-d]pyrimidin-2-yl)oxy]ethyl}piperidin-4-yl)methyl]-4-fluoropiperidin-1-yl}acetamido)-3,3-dimethylbutanoyl]-4-hydroxy-N-[(1S)-1-[4-(4-methyl-1,3-thiazol-5-yl)phenyl]ethyl]pyrrolidine-2-carboxamide], for which the Dmax was 80 to 100% and the DC50 was less than 600 nM.
Consider `CCc1cccc2cc(O)cc(-c3ncc4c(N5CC6CCC(C5)N6)nc(OCCN5CCC(CC6CN(c7cnc(C(=O)N[C@H](C(=O)N8C[C@H](O)C[C@H]8C(=O)N[C@@H](C)c8ccc(-c9scnc9C)cc8)C(C)(C)C)cn7)C6)CC5)nc4c3F)c12` [Compound 279], for which the Dmax was in the range of 60 to 80% and the DC50 was less than 600 nM.

The values above are taken from patent publication US20250206732A1, “COMPOUNDS AND METHODS FOR THE TARGETED DEGRADATION OF KRAS” (Arvinas Operations, Inc., priority 2022, published 2025).
